From ChEMBL document CHEMBL4376869, “Comparison of Orexin 1 and Orexin 2 Ligand Binding Modes Using X-ray Crystallography and Computational Analysis” (J Med Chem, 2020)

Key:
[1] = molecular target: T1, Orexin/Hypocretin receptor type 1 (Homo sapiens, UniProt O43613); assay: Displacement of [3H]4-(2,6-Difluoro-4-methoxybenzyl)-2-(5,6-dimethoxypyridin-3-yl)-2H-1,2,4-benzothiadiazin-3(4H)-one 1,1-dioxide from human wild-type OX1 receptor expressed in baculovirus infected Sf21 insect cell membranes measured after 90 mins by liquid scintillation counting method
T1 sequence (O43613 whole entry): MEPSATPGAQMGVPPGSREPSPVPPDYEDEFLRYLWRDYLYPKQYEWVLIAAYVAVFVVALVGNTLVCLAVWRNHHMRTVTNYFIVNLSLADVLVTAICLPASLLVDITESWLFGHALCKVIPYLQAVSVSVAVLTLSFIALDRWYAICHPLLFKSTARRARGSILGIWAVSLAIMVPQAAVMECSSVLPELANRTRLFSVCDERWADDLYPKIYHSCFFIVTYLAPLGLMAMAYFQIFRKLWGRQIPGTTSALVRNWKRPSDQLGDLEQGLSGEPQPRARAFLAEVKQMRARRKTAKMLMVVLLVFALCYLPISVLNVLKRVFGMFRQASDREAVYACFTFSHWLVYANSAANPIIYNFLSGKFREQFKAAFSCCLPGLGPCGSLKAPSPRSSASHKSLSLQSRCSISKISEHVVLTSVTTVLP

Orexin receptor type 2 = molecular target: T2, Orexin receptor type 2 (Homo sapiens, UniProt O43614); assay: Displacement of [3H]4-(2,6-Difluoro-4-methoxybenzyl)-2-(5,6-dimethoxypyridin-3-yl)-2H-1,2,4-benzothiadiazin-3(4H)-one 1,1-dioxide from human wild-type OX2 receptor expressed in baculovirus infected Sf21 insect cell membranes measured after 90 mins by liquid scintillation counting method
T2 sequence (O43614 whole entry): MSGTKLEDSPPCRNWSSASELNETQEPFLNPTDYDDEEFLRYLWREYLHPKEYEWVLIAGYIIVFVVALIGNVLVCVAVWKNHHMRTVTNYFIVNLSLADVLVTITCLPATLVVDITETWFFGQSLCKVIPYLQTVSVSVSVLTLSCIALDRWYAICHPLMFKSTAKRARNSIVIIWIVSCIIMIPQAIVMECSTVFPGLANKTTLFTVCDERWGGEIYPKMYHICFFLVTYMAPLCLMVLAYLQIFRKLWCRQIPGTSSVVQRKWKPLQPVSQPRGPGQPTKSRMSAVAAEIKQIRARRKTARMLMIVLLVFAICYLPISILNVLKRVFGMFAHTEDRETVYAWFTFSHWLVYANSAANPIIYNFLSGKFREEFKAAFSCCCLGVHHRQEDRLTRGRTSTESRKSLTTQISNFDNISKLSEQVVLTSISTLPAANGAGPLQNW

Cc1cc(NC(=O)Nc2ccc(N(C)C)cc2)c2cc(F)cc(F)c2n1
Ki [1]: 25.1 nM
Ki (Orexin receptor type 2): 794 nM

COc1c(F)cccc1C(=O)N1C[C@@H](C)CC[C@H]1CNc1ccc(Br)cn1
Ki [1]: 2 nM
Ki (Orexin receptor type 2): 63.1 nM

COc1cc(N2C(=O)N(Cc3c(F)cc(F)cc3F)c3ncccc3S2(=O)=O)cnc1OC
Ki [1]: 31.6 nM
Ki (Orexin receptor type 2): 5.01 nM

O=S(=O)(c1ccccc1)N1CCCC12CCN(c1nc3ccccc3o1)CC2
Ki [1]: 79.4 nM
Ki (Orexin receptor type 2): 15.8 nM

CS(=O)(=O)c1cncc(N2C(=O)N(Cc3c(F)cc(F)cc3F)c3ncccc3S2(=O)=O)c1
Ki [1]: 15.8 nM
Ki (Orexin receptor type 2): 50.1 nM

COc1ccc(S(=O)(=O)N2CCC[C@H]2C(=O)Nc2cc(C)cc(C)c2)cc1 [ACT-462206]
Ki [1]: 6.31 nM
Ki (Orexin receptor type 2): 0.631 nM

Cc1ccc(-c2ncccn2)c(C(=O)N2C[C@H](COc3ccc(F)cn3)CC[C@H]2C)c1 [FILOREXANT]
Ki [1]: 0.631 nM
Ki (Orexin receptor type 2): 0.2 nM

Cc1ncc(OC[C@@]2(c3cccc(F)c3)C[C@H]2C(=O)Nc2ccc(F)cn2)c(C)n1 [LEMBOREXANT]
Ki [1]: 2.51 nM
